Assay results from patent publication US20030134783A1, “Use of cyclic heptapeptides for the inhibition of biofilm formation” (priority 2001, published 2003).
Numbered stars: 1 amine (or outer) side, 2 acyl side, 3 side chain; on linkers, the order of the positions; unused ones are H or OH. Bridge positions count the residues as written; N and C are the ends. Square brackets hold non-standard residues; d marks the D form. Peptide text beside a SMILES is read from it. X1 = CC(C)CCCCCCCCC[C@H](CC(=O)[*:1])O[*:2]

Tests used:
[1] = test system: S. enterica pre-formed biofilm; experiment: Dispersal of pre-formed biofilm in PVC wells; assay type: cell-based, Salmonella enterica; conditions: for effect on pre-formed biofilms: detergent-like compounds mixed into cultures in PVC wells
Method: (§1) Studies were done to test biofilm formation in microtitre wells. To quantify biofilm formation, typically, 10 μl of an overnight culture were used to inoculate PVC microtitre wells containing 90 μl of LB without NaCl, but with 2% glucose. The covered microtitre dish was sealed with parafilm during incubation at 30° C. Cultures were removed to determine the OD630, and the wells were rinsed with distilled water. After drying at room temperature for 15 minutes, 200 μl of crystal violet (1%) was added to the wells for 20 minutes The stained biofilms were rinsed several times with distilled water, allowed to dry at room temperature for 15 minutes, and extracted with 2×200 μl 95% ethanol. The OD550 was estimated using a Beckman DU-640B spectrophotometer, after adjusting the volume to 1 mL with distilled water.
Surfactin was added to PVC wells after the culture had reached an OD630 of approximately 0.15-0.2. When this OD was reached, the surfactants were gently mixed into the cultures in microtitre wells. Samples were harvested and either growth as determined by OD630 or biofilm levels as measured by OD550 of CV-stained material were analyzed. The OD550 of the surfactin-treated sample decreased at a faster rate than that of the untreated sample for the initial sloughing phase of BF, resulting in an approximately 85% decrease in total biofilm by the end of the experiment at 22 hours.
The detergents tested were SDS (ionic surfactant), Tween-80 ([…] surfactant), rhamnolipid (another lipopeptide surfactant) and serrawettin. Surfactin concentration in this and the rest of the studies was maintained at 100 μg in order to compare its activity to that of the biosurfactant rhamnolipid, which affected BF when it was used at higher concentrations.

[2] = test system: wild-type S. enterica; experiment: Biofilm formation in PVC microtitre wells, crystal violet staining; assay type: cell-based, Salmonella enterica
Method: The ability of lipopolysaccharide (LPS) mutants to form biofilms was tested in PVC microtitre plates. The biofilm assay used monitors the ability of S. enterica to attach to the wells of the microtitre dishes. The biofilm formed at the interface between the air and liquid medium, and was quantitated by staining with crystal violet (CV) as described in the examples given below.
as §1
The swarming defect of the LPS mutants could be rescued by the addition of the surfactin isolated from Bacillus subtilis. […]

[3] = test system: Salmonella typhimurium; experiment: Biofilm formation in catheters, crystal violet staining; assay type: cell-based; design: key to Biofilm Formation: “++++” = efficient biofilm formation; “−” = no biofilm formation; conditions: for inhibition of BF by S. enterica relative to surfactin: catheters, Tween 80 at 0.25%, 10 to 100 million bacterial cells
Method: (§2) To visualize biofilm formation in catheters, 10 μl of an overnight culture of S. enterica was inoculated into 500 μl of medium and injected into clear vinyl urethral catheters overnight at 30° C., with and without 100 μg surfactin. Biofilms were analyzed by staining with CV. The catheters were capped at both ends and incubated at 30° C. overnight. Media and growth conditions were as described above for PVC wells. Cultures were removed to determine the OD630, and the catheters were rinsed with distilled water. After drying at room temperature for 15 minutes, 700 μl of crystal violet (1%) was added to the catheters for 20 minutes. The stained biofilms were rinsed several times with distilled water, and allowed to dry at room temperature for 15 minutes before examination.
S. enterica was grown in clear vinyl urethral catheters. The biofilm formed by S. enterica was dispersed all along the growth surface. […] It is important to note that the same results were obtained when venous catheters made of polyurethane were tested. The data presented here relate mainly to the urethral catheters.
When the device coated is to be inserted in the body cavity, some form of surface sterilization may be necessary. Also, endogenous fluids should not wash off the surfactin coating. Studies were conducted to determine these properties of the coating (Table 1). Urethral catheters were coated with surfactin (by passing through 500 μl of a solution of 1.0 μg/μl surfactin), and 10 mL of sterile saline solution were passed through the coated catheter.
After coating urethral cathethers with surfactin, the coated catheters were subjected to treatment in an autoclave (121° C., 15 psi) for 30 minutes or baking in a 50° C. oven for 6 hours. […] Surfactin, apparently adhered to the catheters, largely inhibiting biofilm formation.
The biofilm-inhibiting properties of surfactin are not altered after storing surfactin-baked catheters (baked for one hour at 60° C.) for 5 days at room temperature (Table 2). Further, baked on surfactin is not washed off by sterile saline dripping through the catheter at 0.3 mL/minutes for 24 hours. The BF-inhibiting properties of surfactin are stable over 50 days of storage at either room temperature or at 4° C. Thus, medical devices coated with surfactin, or a substance with surfactin-like properties, may be partially sterilized by baking at 60° C., and the sterility would be maintained over a long period of time.

[4] = test system: Escherichia coli; experiment: Biofilm formation in urethral catheters, crystal violet staining; assay type: cell-based
Method: as §2
(§3) The most common causes of central urinary catheter and central venous catheter infections (caused by adherent bacteria), include Eschericila coli, Proteus mirabilis, and Pseudomonas aeruginosa, Klebseiella pneumoniae, Staphylococcus epidermis. The effect of surfactin on BF by some of these medically relevant organisms was tested by growth of the organism in urethral catheters (Table 3). Escherichia coli and Proteus mirabilis formed a biofilm mainly at the air liquid interface, while the biofilm formed by P. aeruginosa, like that formed by S. enterica, was dispersed all along the catheter.

[5] = test system: Proteus mirabilis; experiment: as above; assay type: cell-based
Method: as §2, §3

[6] = test system: Staphylococcus epidermis; experiment: as above; assay type: cell-based; conditions: Surfactin-coated catheters
Method: as §2, §3

[7] = test system: LPS mutants of S. enterica; experiment: Rescue of swarming defect of LPS mutants; assay type: cell-based, Salmonella enterica; conditions: addition of surfactin isolated from Bacillus subtilis

CCCCCCCCCCCCOS(=O)(=O)[O-].[Na+] [SDS]
effect on pre-formed biofilms [1]: dispersed pre-formed biofilm

CC(C)CCCCCCCCC[C@@H]1CC(=O)N[C@@H](CCC(=O)O)C(=O)N[C@@H](CC(C)C)C(=O)N[C@H](CC(C)C)C(=O)N[C@@H](C(C)C)C(=O)N[C@@H](CC(=O)O)C(=O)N[C@H](CC(C)C)C(=O)N[C@@H](CC(C)C)C(=O)O1 [Surfactin, surfactin] (EL[dL]VD[dL]L; linker N-C via X1)
amount of surfactin sufficient to completely abolish BF ([2]; PVC wells pre-coated or surfactin in growth medium, overnight at 30° C.): < 5 µg
Bacterial growth ([2]; all surfactin concentrations tested): unaffected
decrease in total biofilm (pre-formed) ([1]; surfactin 100 μg added at OD630 0.15-0.2, end of experiment at 22 hours): approximately 85%
stability of BF-inhibiting properties on storage ([3]; 50 days of storage at room temperature or at 4° C.): stable
Biofilm formation, optical density reading based on crystal violet staining ([3]; Surfactin-coated catheters): 0.05
Biofilm Formation ([3]; catheter treatment: Surfactin, saline wash (10 mL sterile saline)): ++++
Biofilm Formation ([3]; catheter treatment: Surfactin, the oven (50° C., 6 hours)): −
formation of biofilm on the catheters ([3]; clear vinyl urethral catheters, 100 μg surfactin, overnight at 30° C.): eliminated the formation of biofilm
effect of oven treatment on biofilm inhibition by surfactin ([3]; coated catheters baked in 50° C. oven for 6 hours): no effect
resistance of baked surfactin coating to saline washing ([3]; oven treatment of surfactin coated catheters): resistant to saline washing
effectiveness of pre-coating catheters versus surfactin in the growth medium ([3]; surfactin solution run through catheters prior to inoculation): just as effective
Biofilm formation, optical density reading based on crystal violet staining ([3]; surfactin-baked catheters (one hour at 60° C.), 5 days at room T.): 0.05
Biofilm formation, optical density reading based on crystal violet staining ([3]; surfactin-baked catheters, 24 hour saline wash (0.3 mL/minutes)): 0.06
Biofilm Formation ([3]; urethral catheter treatment: Surfactin): −
Biofilm formation, optical density reading based on crystal violet staining ([4]; Surfactin-coated catheters): 0.05
inhibition of BF and growth ([4]; growth in urethral catheters): inhibited BF (but not growth)
Biofilm formation, optical density reading based on crystal violet staining ([5]; Surfactin-coated catheters): 0.11
inhibition of BF and growth ([5]; growth in urethral catheters): inhibited BF (but not growth)
Biofilm formation, optical density reading based on crystal violet staining [6]: 0.40
swarming defect of the LPS mutants [7]: rescued

CCCCCCCC/C=C\CCCCCCCC(=O)OCCOCC(OCCO)C1OCC(OCCO)C1OCCO (centres unmarked) [Tween-80, reference compound]
effect on pre-formed biofilms [1]: dispersed pre-formed biofilm
inhibition of BF by S. enterica relative to surfactin [3]: as effective as surfactin

rhamnolipid [reference compound]
effect on pre-formed biofilms [1]: dispersed pre-formed biofilm
inhibition of BF by S. enterica relative to surfactin [3]: only half as effective

serrawettin
effect on pre-formed biofilms [1]: dispersed pre-formed biofilm
